In patent US20260234165A1, “MACROCYCLIC COMPOUNDS, PREPARATION METHOD THEREFOR, AND USE THEREOF” (GENFLEET THERAPEUTICS (SHANGHAI) INC., priority 2004, published 2026):
Structures can show the parent of a compound that is named as a salt. Where two headings read alike, the source gives them in different places.

Columns and labels:
Format in all cases: cell-based, human
[1] = test system: p-ERK in NCI-H441 cells (KRAS G12V mutation); assay: Cell p-ERK assay (HTRF) in NCI-H441 cells; conditions: NCI-H441 cells, 3 h compound incubation, HTRF p-ERK T202/Y204, read-out: H441 p-ERK IC50
In short: (§1)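 In this cellular format, endogenous KRAS-mutant lines grown in RPMI-1640 plus 10% FBS received graded compound concentrations for 3 h at 37 °C. Lysates were incubated 4 h with the phospho-T202/Y204 ERK HTRF antibody pair, and percent inhibition relative to DMSO and blank wells was curve-fitted to give IC50.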

[2] = test system: AsPC-1 cells (KRAS G12D mutation); assay: 3D cell proliferation assay (CellTiter Glo-3D), AsPC-1; conditions: medium with 2% FBS, read-out: AsPC-1 AP IC50
In short: (§2)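 Cells were seeded at 800 per well in RPMI-1640 containing 2% FBS and left overnight. Compounds in 3.16-fold dilution series were then added at 0.1% DMSO and incubated 5 days at 37 °C. Viability was read by CellTiter-Glo 3D luminescence and IC50 values fitted by four-parameter regression.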

[3] = test system: p-ERK in AsPC-1 cells (KRAS G12D mutation); assay: Cell p-ERK assay (HTRF) in AsPC-1 cells; conditions: AsPC-1 cells, 3 h compound incubation, HTRF p-ERK T202/Y204, read-out: AsPC-1 p-ERK IC50
In short: as §1

NCI-H441 cells = assay: 3D cell proliferation assay (CellTiter Glo-3D), NCI-H441; conditions: medium with 2% FBS, read-out: H441 AP IC50
In short: as §2

[4] = Homo sapiens, ASPC1, 3D cell proliferation (CellTiter Glo-3D)
[5] = Homo sapiens, NCI-H441, 3D cell proliferation (CellTiter Glo-3D)
[6] = 3D cell proliferation (CellTiter Glo-3D)

IC50 ([1]; Homo sapiens, NCI-H441, 3 h)	IC50 [2, 4]	IC50 ([3]; Homo sapiens, ASPC1, 3 h)	IC50 (NCI-H441 cells; [5])	IC50 [1]	IC50 [2, 6]	IC50 [3]	IC50 (NCI-H441 cells; [6])	Compound
19 nM	30.3 nM	19.2 nM	29.9 nM	–	–	–	–	CCn1c(-c2cc(N(C)CC3COCCN3C)cnc2[C@H](C)OC)c2c3cc(ccc31)-c1csc(n1)C[C@H](NC(=O)[C@H]1[C@H](C)[C@@H]1C)C(=O)N1CCC[C@H](N1)C(=O)OCC(C)(C)C2 (stereo partly drawn) [Compound Z76, (1r,2R,3S)—N-((6^3S,4S,Z)-1^1-ethyl-1^2-(2-((S)-1-methoxyethyl)-5-(methyl((4-methylmorpholin-3-yl)methyl)amino)pyridin-3-yl)-10,10-dimethyl-5,7-dioxo-6^1,6^2,6^3,6^4,6^5,6^6-hexahydro-11H-8-oxa-2(4,2)-thiazola-1(5,3)-indola-6(1,3)-pyridazinacycloundecaphane-4-yl)-2,3-dimethylcyclopropane-1-carboxamide]
1.7 nM	3.42 nM	2.01 nM	2.03 nM	–	–	–	–	CCn1c(-c2cc(N3CCN(C4(c5cccc(C)n5)CC4)CC3)cnc2[C@H](C)OC)c2c3cc(ccc31)-c1csc(n1)C[C@H](NC(=O)[C@H]1[C@H](C)[C@@H]1C)C(=O)N1CCC[C@H](N1)C(=O)OCC(C)(C)C2 [Compound Z81, (1r,2R,3S)—N-((6^3S,4S,Z)-1^1-ethyl-2-(2-((S)-1-methoxyethyl)-5-(4-(1-(6-methylpyridin-2-yl)cyclopropyl)piperazin-1-yl)pyridin-3-yl)-10-10-dimethyl-5,7-dioxo-6^1,6^2,6^3,6^4,6^5,6^6-hexahydro-1^1H-8-oxa-2(4,2)-thiazola-1(5,3)-indola-6(1,3)-pyridazinacycloundecaphane-4-yl)-2,3-dimethylcyclopropane-1-carboxamide formate]
–	–	–	–	0.75 nM	0.77 nM	0.43 nM	0.48 nM	CCn1c(-c2cc(OCCN3CCOC4(CC4)C3)cnc2[C@H](C)OC)c2c3cc(ccc31)-c1csc(n1)C[C@H](NC(=O)[C@H]1[C@H](C)[C@@H]1C)C(=O)N1CCC[C@H](N1)C(=O)OCC(C)(C)C2 [Compound Z83, (1r,2R,3S)—N-((6^3R,4R,Z)-1^2-(5-(2-(4-oxa-7-azaspiro[2,5]octan-7-yl)ethoxy)-2-((S)-1-methoxyethyl)pyridin-3-yl)-1′-ethyl-10,10-dimethyl-5,7-dioxo-6^1,6^2,6^3,6^4,6^5,6^6-hexahydro-1^1H-8-oxa-2(4,2)-thiazola-1(5,3)-indola-6(1,3)-pyridazinacycloundecaphane-4-yl)-2,3-dimethylcyclopropane-1-carboxamide]
–	–	–	–	8.74 nM	51.9 nM	15.7 nM	23.1 nM	CCn1c(-c2cc(OCC3(N4CCCOCC4)CC3)cnc2[C@H](C)OC)c2c3cc(ccc31)-c1csc(n1)C[C@H](NC(=O)[C@H]1[C@H](C)[C@@H]1C)C(=O)N1CCC[C@H](N1)C(=O)OCC1(CC1)C2 [Compound Z329, (1r,2R,3S)—N-((3′S,4′S,Z)-2′-(5-((1-(1,4-oxazepan-4-yl)cyclopropyl)methoxy)-2-((S)-1-methoxyethyl)pyridin-3-yl)-1′-ethyl-5′,7′-dioxospiro[cyclopropane-1,10′-8-oxa-2(4,2)-thiazola-1(5,3)-indola-6(1,3)-pyridazinacycloundecaphan]-4′-yl)-2,3-dimethylcyclopropane-1-carboxamide]
10.9 nM	29.2 nM	18.8 nM	18.6 nM	–	–	–	–	CCn1c(-c2cc(OCC3(N4CCC4)CC3)cnc2[C@H](C)OC)c2c3cc(ccc31)-c1csc(n1)C[C@H](NC(=O)[C@H]1[C@H](C)[C@@H]1C)C(=O)N1CCC[C@H](N1)C(=O)OCC1(CC1)C2 [Compound Z333]
–	–	16.3 nM	–	9.1 nM	53.4 nM	–	19.7 nM	CO[C@@H](C)c1ncc(OCCN2CCOC3(CC3)C2)cc1-c1c2c3cc(ccc3n1CC(F)(F)F)-c1csc(n1)C[C@H](NC(=O)[C@H]1[C@H](C)[C@@H]1C)C(=O)N1CCC[C@H](N1)C(=O)OCC1(CC1)C2 [Compound Z350, (1r,2R,3S)—N-((3′S,4′S,Z)-2′-(5-(2-(4-oxa-7-azaspiro[2.5]octan-7-yl)ethoxy)-2-((S)-1-methoxyethyl)pyridin-3-yl)-5′,7′-dioxo-1′-(2,2,2-trifluoroethyl)spiro[cyclopropane-1,10′-8-oxa-2(4,2)-thiazola-1(5,3)-indola-6(1,3)-pyridazinacycloundecaphan]-4-yl)-2,3-dimethylcyclopropane-1-carboxamide]
–	–	–	–	2.61 nM	2.38 nM	2.66 nM	2.25 nM	CCn1c(-c2cc(C#CCN3CCC3)cnc2[C@H](C)OC)c2c3cc(ccc31)-c1csc(n1)C[C@H](NC(=O)[C@H]1[C@H](C)[C@@H]1C)C(=O)N1CCC[C@H](N1)C(=O)OCC(C)(C)C2 [Compound Z361, (1r,2R,3S)—N-((6^3S,4S,Z)-1-(5-(3-(azetidin-1-yl)prop-1-yn-1-yl)-2-((S)-1-methoxyethyl)pyridin-3-yl)-1^1-ethyl-10,10-dimethyl-5,7-dioxo-6^1,6^2,6^3,6^4,6^5,6^6-hexahydro-1^1H-8-oxa-2(4,2)-thiazola-1(5,3)-indola-6(1,3)-pyridazinacycloundecaphane-4-yl)-2,3-dimethylcyclopropane-1-carboxamide formate]
0.16 nM	0.14 nM	0.12 nM	0.21 nM	–	–	–	–	CCn1c(-c2cc(C#CCN3CCOC4(CC4)C3)cnc2[C@H](C)OC)c2c3cc(ccc31)-c1csc(n1)C[C@H](NC(=O)[C@H]1[C@H](C)[C@@H]1C)C(=O)N1CCC[C@H](N1)C(=O)OCC(C)(C)C2 [Compound Z369-1, (1r,2R,3S)—N-((6^3S,4S,Z)-1^2-(5-(3-(4-oxa-7-azaspiro[2.5]octan-7-yl)prop-1-yn-1-yl)-2-((S)-1-methoxyethyl)pyridin-3-yl)-1^1-ethyl-10,10-dimethyl-5,7-dioxo-6^1,6^2,6^3,6^4,6^5,6^6-hexahydro-1^1H-8-oxa-2(4,2)-thiazola-1(5,3)-indola-6(1,3)-pyridazinacycloundecaphane-4-yl)-2,3-dimethylcyclopropane-1-carboxamide formate]
14 nM	15.3 nM	31.4 nM	6.8 nM	–	–	–	–	CCn1c(-c2cc(C3(N(C)C(=O)CN(C)C)CC3)cnc2[C@H](C)OC)c2c3cc(ccc31)-c1csc(n1)C[C@H](NC(=O)[C@H]1[C@H](C)[C@@H]1C)C(=O)N1CCC[C@H](N1)C(=O)OCC(C)(C)C2 [Compound Z372, (1r,2R,3S)—N-((6^3S,4S,Z)-1^2-(5-(1-(2-(dimethylamino)-N-methylacetamido)cyclopropyl)-2-((S)-1-methoxyethyl)pyridin-3-yl)-1^1-ethyl-10,10-dimethyl-5,7-dioxo-6^1,6^2,6^3,6^4,6^5,6^6-hexahydro-1^1H-8-oxa-2(4,2)-thiazola-1(5,3)-indola-6(1,3)-pyridazinacycloundecaphane-4-yl)-2,3-dimethylcyclopropane-1-carboxamide]
0.4 nM	0.54 nM	0.34 nM	0.48 nM	–	–	–	–	CCn1c(-c2cc(C#CCN3CC(F)(F)C3)cnc2[C@H](C)OC)c2c3cc(ccc31)-c1csc(n1)C[C@H](NC(=O)[C@H]1[C@H](C)[C@@H]1C)C(=O)N1CCC[C@H](N1)C(=O)OCC(C)(C)C2 [Compound Z390-1, (2R,3S)—N-((6^3S,4S,Z)-1^2-(5-(3-(3,3-difluoroazetidin-1-yl)prop-1-yn-1-yl)-2-((S)-1-methoxyethyl)pyridin-3-yl)-1^1-ethyl-10,10-dimethyl-5,7-dioxo-6^1,6^2,6^3,6^4,6^5,6^6-hexahydro-1^1H-8-oxa-2(4,2)-thiazola-1(5,3)-indola-6(1,3)-pyridazinacycloundecaphane-4-yl)-2,3-dimethylcyclopropane-1-carboxamide]
11.7 nM	12.6 nM	10.1 nM	7.54 nM	–	–	–	–	CCn1c(-c2cc(OCCN3CCC4(CC4)C3)cnc2[C@H](C)OC)c2c3cc(ccc31)-c1csc(n1)C[C@H](NC(=O)[C@H]1[C@H](C)[C@@H]1C)C(=O)N1CCC[C@H](N1)C(=O)OCC1(CC1)C2 [Compound Z415, (1r,2R,3S)—N-((3′S,4′S,Z)-2′-(5-(2-(5-azaspiro[2.4]heptan-5-yl)ethoxy)-2-((S)-1-methoxyethyl)pyridin-3-yl)-1′-ethyl-5′,7′-dioxaspiro[cyclopropane-1,10′-8-oxa-2(4,2)-thiazola-1(5,3)-indola-6(1,3)-pyridazinacycloundecaphan]-4′-yl)-2,3-dimethylcyclopropane-1-carboxamide]
